Measurements from US20060264410A1, “19,26,27-trinor-1alpha,25-dihydroxyvitamin D3 compounds” (Wisconsin Alumni Research Foundation, priority 2005, published 2006).
“Also recorded” adds a separate entry of the source.

Tests used:
[1] = tested on: cell differentiation; conditions: prior art; cited from earlier work
[2] = prior art; b9 values compared to 1α,25-dihydroxyvitamin D3; cited from earlier work
[3] = molecular target: T1, vitamin D receptor (Homo sapiens, UniProt P11473); conditions: from '352, '861 and '622 patents; cited from earlier work
T1 sequence (P11473 1-427): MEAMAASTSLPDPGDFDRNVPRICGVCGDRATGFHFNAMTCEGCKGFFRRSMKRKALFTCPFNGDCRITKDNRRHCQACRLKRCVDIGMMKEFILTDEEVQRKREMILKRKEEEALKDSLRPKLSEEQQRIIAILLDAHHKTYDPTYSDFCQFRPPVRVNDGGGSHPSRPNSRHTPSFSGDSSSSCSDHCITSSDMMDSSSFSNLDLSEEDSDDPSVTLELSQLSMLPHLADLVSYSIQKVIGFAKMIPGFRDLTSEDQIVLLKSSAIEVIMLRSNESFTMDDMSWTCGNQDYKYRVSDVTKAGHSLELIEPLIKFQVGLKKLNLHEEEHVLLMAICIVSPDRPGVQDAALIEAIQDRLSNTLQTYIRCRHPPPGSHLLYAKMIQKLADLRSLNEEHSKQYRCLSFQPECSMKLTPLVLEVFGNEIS

[4] = tested on: HL-60 cells; assay: HL-60 differentiation (nitro blue tetrazolium reduction); format: cell-based, Human; conditions: FIG. 3
Method: The study drugs were dissolved in ethanol and the concentrations determined using UV spectrophotometry. Serial dilutions were prepared so that a range of drug concentrations could be tested without changing the final concentration of ethanol (≦0.2%) present in the cell cultures.
Human promyelocytic leukemia (HL60) cells were grown in RPMI-1640 medium containing 10% fetal bovine serum. The cells were incubated at 37° C. in the presence of 5% CO2.
HL60 cells were plated at 1.2×10^5 cells/mL. Eighteen hours after plating, cells in duplicate were treated with drug. Four days later, the cells were harvested and a nitro blue tetrazolium reduction assay was performed (Collins et al., 1979; J. Exp. Med. 149:969-974). The percentage of differentiated cells was determined by counting a total of 200 cells and recording the number that contained intracellular black-blue formazan deposits. Verification of differentiation to monocytic cells was determined by measuring phagocytic activity (data not shown).

[5] = molecular target: T2, full-length recombinant rat vitamin D receptor (Rattus norvegicus, UniProt P13053); assay: Vitamin D receptor binding, competition with [3H]-1,25-(OH)2-D3; conditions: FIGS. 1 and 2
T2 construct: Full-length recombinant rat receptor was expressed in E. coli BL21(DE3) Codon Plus RIL cells; histidine tag (C); made in house; host or cells: E. coli BL21(DE3) Codon Plus RIL
T2 sequence (P13053 1-423): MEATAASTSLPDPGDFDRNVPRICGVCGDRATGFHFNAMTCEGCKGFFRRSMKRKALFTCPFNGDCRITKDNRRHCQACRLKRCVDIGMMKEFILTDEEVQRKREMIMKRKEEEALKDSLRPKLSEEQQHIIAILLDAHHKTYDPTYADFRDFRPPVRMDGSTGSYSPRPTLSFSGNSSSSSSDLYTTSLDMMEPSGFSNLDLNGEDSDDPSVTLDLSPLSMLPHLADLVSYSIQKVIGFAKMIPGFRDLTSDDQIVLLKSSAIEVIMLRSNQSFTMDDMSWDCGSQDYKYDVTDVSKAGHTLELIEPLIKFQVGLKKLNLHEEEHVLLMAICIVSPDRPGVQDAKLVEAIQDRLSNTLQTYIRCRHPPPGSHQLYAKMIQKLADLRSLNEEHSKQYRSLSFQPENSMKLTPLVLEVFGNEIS
Method: Full-length recombinant rat receptor was expressed in E. coli BL21(DE3) Codon Plus RIL cells and purified to homogeneity using two different column chromatography systems. The first system was a nickel affinity resin that utilizes the C-terminal histidine tag on this protein. The protein that was eluted from this resin was further purified using ion exchange chromatography (S-Sepharose Fast Flow). Aliquots of the purified protein were quick frozen in liquid nitrogen and stored at −80° C. until use. For use in binding assays, the protein was diluted in TEDK50 (50 mM Tris, 1.5 mM EDTA, pH 7.4, 5 mM DTT, 150 mM KCl) with 0.1% Chaps detergent. The receptor protein and ligand concentration was optimized such that no more than 20% of the added radiolabeled ligand was bound to the receptor.
Unlabeled ligands were dissolved in ethanol and the concentrations determined using UV spectrophotometry (1,25(OH)2D3: molar extinction coefficient=18,200 and λmax=265 nm; Analogs: molar extinction coefficient=42,000 and λmax=252 nm). Radiolabeled ligand (^3H-1,25(OH)2D3, ˜159 Ci/mmol) was added in ethanol at a final concentration of 1 nM.
Radiolabeled and unlabeled ligands were added to 100 mcl of the diluted protein at a final ethanol concentration of ≦10%, mixed and incubated overnight on ice to reach binding equilibrium. The following day, 100 mcl of hydroxylapatite slurry (50%) was added to each tube and mixed at 10-minute intervals for 30 minutes. The hydroxylapaptite was collected by centrifugation and then washed three times with Tris-EDTA buffer (50 mM Tris, 1.5 mM EDTA, pH 7.4) containing 0.5% Titron X-100. After the final wash, the pellets were transferred to scintillation vials containing 4 mL of Biosafe II scintillation cocktail, mixed and placed in a scintillation counter. Total binding was determined from the tubes containing only radiolabeled ligand.

[6] = Intestinal calcium transport (everted gut sac method); format: in vivo, Sprague-Dawley rats; conditions: rats, four ip doses; FIGS. 6 and 8
Method: (§1) Male, weanling Sprague-Dawley rats were placed on Diet 11 (Suda et al. J. Nutr. 100:1049, 1970) (0.47% Ca) diet+vitamins AEK for one week followed by Diet 11 (0.02% Ca)+AEK for 3 weeks. The rats were then switched to a diet containing 0.47% Ca for one week followed by two weeks on the diet containing 0.02% Ca. Dose administration began during the last week on 0.02% calcium diet. Four consecutive ip doses were given approximately 24 hours apart. Twenty-four hours after the last dose, blood was collected from the severed neck and the concentration of serum calcium determined as a measure of bone calcium mobilization. The first 10 cm of the intestine was also collected for intestinal calcium transport analysis using the everted gut sac method.

[7] = tested on: 24-hydroxylase (24Ohase) gene promoter; assay: In vitro transcription assay (luciferase reporter in ROS 17/2.8 cells); format: cell-based; conditions: 24Ohase promoter-luciferase, FIG. 4
Method: Transcription activity was measured in ROS 17/2.8 (bone) cells that were stably transfected with a 24-hydroxylase (24Ohase) gene promoter upstream of a luciferase reporter gene (Arbour et al., 1998). Cells were given a range of doses. Sixteen hours after dosing the cells were harvested and luciferase activities were measured using a luminometer. RLU=relative luciferase units.

[8] = Bone calcium mobilization (serum calcium); format: in vivo, Sprague-Dawley rats; conditions: rats, four ip doses, even at 7,020 pmol/day; FIGS. 5 and 7
Method: as §1

Compound | cell differentiation activity [1] | calcemic / calcium mobilizing activity [2] | binding activity to the vitamin D receptor [3] | activity in inducing differentiation of HL-60 cells compared with 1α,25-dihydroxyvitamin D3 [4] | activity in binding to the vitamin D receptor compared with 1α,25-dihydroxyvitamin D3 [5] | intestinal calcium transport [6] | activity in causing transcription compared with 1α,25-dihydroxyvitamin D3 [7] | calcemic activity measured by bone calcium mobilization [8]
1α-hydroxy-2-methylene-19-nor-(20S)-homopregnacalciferol | relatively high cell differentiation activity | little if any calcemic activity | relatively high binding activity | – | – | – | – | –
1α-hydroxy-2-methylene-19-nor-bishomopregnacalciferol | relatively high cell differentiation activity | little if any calcemic activity | relatively high binding activity | – | – | – | – | –
C[C@H](CCCC(C)(C)O)[C@H]1CC[C@H]2/C(=C/C=C3C[C@@H](O)C[C@H](O)C3)CCC[C@]12C [1α,25-dihydroxy-19-nor-vitamin D3] | high potency | very low calcium mobilizing activity | – | – | – | – | – | –
C=C1[C@H](O)CC(=C/C=C2\CCC[C@]3(C)[C@@H](CC)CC[C@@H]23)C[C@H]1O [1α-Hydroxy-2-methylene-19-nor-pregnacalciferol] | relatively high cell differentiation activity | little if any calcemic activity | relatively high binding activity | – | – | – | – | –
C=C1[C@H](O)CC(=C/C=C2\CCC[C@]3(C)[C@@H]([C@@H](C)CCCCO)CC[C@@H]23)C[C@H]1O [BM, 2-methylene-19,26,27-trinor-(20S)-1α,25-dihydroxyvitamin D3] | – | – | – | only slightly less active; also recorded: about the same activity | slightly less active | do not elevate intestinal calcium transport | slightly less activity | no calcemic activity
CC(CCCCO)C1CCC2C(=CC=C3CC(O)C(C)C(O)C3)CCCC21C [P10, 2α-methyl-19,26,27-trinor-(20S)-1α,25-dihydroxyvitamin D3] | – | – | – | less activity | slightly more active | do not elevate intestinal calcium transport | slightly less activity | no calcemic activity
CC1[C@H](O)CC(=C/C=C2\CCC[C@]3(C)[C@@H]([C@@H](C)CCCCO)CC[C@@H]23)C[C@H]1O (stereo partly drawn) [T-74, 2β-methyl-19,26,27-trinor-(20S)-1α,25-dihydroxyvitamin D3] | – | – | – | significantly less activity | significantly less active | do not elevate intestinal calcium transport | significantly less activity | no calcemic activity
